Source: patent US20030096957A1, “AFX (zeta) transcription factor splice form” (priority 2001, published 2003)

Experiments:
Type in all cases: cell-based, human
[1] = system: AFXζ-induced PEPCK p-SEAP activity; test: PEPCK p-SEAP reporter assay in HepG2 cells transfected with AFXζ
Protocol: (§1) FIG. 4. Effect of insulin on the transcriptional activity of AFXζ. HepG2 cells were transiently transfected with pcDNA6/His-AFXζ and PEPCK p-SEAP (A) or PEPCK IRS-SEAP (B). Twenty-four hours after transfection, cells were treated with insulin at the indicated concentration in fresh media and incubated for another 15-18 hours. SEAP and β-galactosidase activities were measured. The relative activation levels were standardized by comparison to the reporter activity from transfected cells without insulin treatment (A) or untreated cells transfected with the reporter alone (B). All values represent the means±S.D. of 3 independent experiments.
FIG. 5. Effect of bpV (peroxovanadate) and PKB on the transcriptional activity of AFXζ. A. HepG2 cells were transiently transfected with PEPCK p-SEAP and pcDNA6/His-AFXζ. Twenty-four hours after transfection, cells were treated with bpV at the indicated concentration in fresh media and were incubated for another 15-18 hours. The relative activation level was standardized by comparison to the reporter activity from transfection without bpV treatment. B. HepG2 cells were transiently cotransfected with the reporter constructs and pcDNA6/His-AFXζ with (filled bars) or without (open bars) the plasmid encoding myr-Akt1, which constitutively expresses active PKB. Forty-eight hours after transfection, SEAP and β-galactosidase activities were measured. The relative activation levels were standardized comparing with the activity from corresponding transfection with reporter alone. All values represent the means±S.D. of 3 independent experiments.
(§2) FIG. 6. Effect of AICAR on the transcriptional activity of AFXζ. A. HepG2 cells were transiently transfected with AFXζ and PEPCK p-SEAP (A) or PEPCK IRS-SEAP (B). Twenty-four hours after transfection, cells were treated with AICAR at indicated concentration in fresh media and incubated for another 15-18 hours. SEAP and β-galactosidase activities were measured. The relative activation levels were standardized by comparison to the activity from cells without AICAR treatment (A) or untreated cells transfected with the reporter alone (B). All values represent the means±S.D. of 3 independent experiments.
Double-stranded DNA fragments containing each of the IRS elements from the promoters of PEPCK, IGFBP- 1 and G6Pase were cloned into the Nhe I/Bgl II site of pSEAP2-promoter vector (Clontech). Dissected fragments of the PEPCK and IGFBP-1 IRS elements, referred as PEPCK-a, PEPCK-b and IGFBP-1a, IGFBP-1b, respectively, were cloned into the same site of pSEAP2-promoter. In addition, a 501 bp fragment corresponding to the human PEPCK 5′ regulatory sequence (−458 to +43 relative to the transcription start site, abbreviated as PEPCK p) was cloned into the Bgl II/EcoR I site of the same vector. […]

[2] = system: AFXζ-induced PEPCK IRS-SEAP activity; test: PEPCK IRS-SEAP reporter assay in HepG2 cells transfected with AFXζ
Protocol: as §1, §2
Double-stranded DNA fragments containing each of the IRS elements from the promoters of PEPCK, IGFBP- 1 and G6Pase were cloned into the Nhe I/Bgl II site of pSEAP2-promoter vector (Clontech). Dissected fragments of the PEPCK and IGFBP-1 IRS elements, referred as PEPCK-a, PEPCK-b and IGFBP-1a, IGFBP-1b, respectively, were cloned into the same site of pSEAP2-promoter. […]
The human hepatoma cell line HepG2 was cultured in Dulbecco's Modified Eagle's Medium (DMEM) with 10% Fetal Bovine Serum (FBS, Life Technologies). […] Secreted alkaline phosphatase (SEAP) and β-galactosidase activities were measured using Phospha-Light and Galacto-Star systems (Tropix Inc., Bedford, Mass.), respectively.

HepG2 cells = system: HepG2 cells
Protocol: The human hepatoma cell line HepG2 was cultured in Dulbecco's Modified Eagle's Medium (DMEM) with 10% Fetal Bovine Serum (FBS, Life Technologies). Transient transfection experiments were performed in DMEM supplemented with 10% dialyzed FBS in 24-well plates. A DNA construct (0.2 μg unless otherwise specified) corresponding to IRS-SEAP, pcDNA6/His-AFXα or -AFXζ and CMV-β was added. Each set of reporter assay includes a transfection in which no AFX expression construct was added. In experiments where PKB effect was tested, 0.2 μg myr-Aktl in pUSEamp(+) (Upstate Biotechnology, Lake Placid, N.Y.), which constitutively expresses activated PKB, was included. Lipofectamine 2000 reagent (Life Technologies) was used for DNA transfection following the manufacturer's instruction. For experiment in which the cells were treated with soluble agents, the medium was changed 24 hours after the transfection. Cells were then treated with appropriate concentrations of bpV [potassium bisperoxo(1,1 0-phenanthroline) oxovanadate(V), Alexis Biochemicals, San Diego, Calif.], porcine insulin, or AICAR (5-aminoimidazole-4-carboxamide-1-β-D-ribofuranoside, Sigma, St. Louis, Mo.) in fresh media for another 15-18 hours. Secreted alkaline phosphatase (SEAP) and β-galactosidase activities were measured using Phospha-Light and Galacto-Star systems (Tropix Inc., Bedford, Mass.), respectively.

NC(=O)c1ncn([C@@H]2O[C@H](CO)[C@@H](O)[C@H]2O)c1N [AICAR, 5-aminoimidazole-4-carboxamide-1-β-D-ribofuranoside]
transcriptional activity of AFXζ on the PEPCK promoter, % of untreated cells ([1]; HepG2, 200 μM AICAR): 48%
induced PEPCK IRS-SEAP activity, % of the stimulation ascribed to transfected AFXζ ([2]; HepG2, 200 μM AICAR): 20%

O.O.O.OO.OO.[K+].[OH-].[V].c1cnc2c(c1)ccc1cccnc12 [bpV, potassium bisperoxo(1,1 0-phenanthroline) oxovanadate(V)]
AFXζ-induced PEPCK p-SEAP reporter activity ([1]; HepG2, 5 μM bpV): below the basal level
lowest concentration repressing AFXζ-induced PEPCK p-SEAP reporter gene activity ([1]; HepG2, 15-18 hours): 0.5 µM
concentration with toxicity in HepG2 cells (reduction of control galactosidase activity) (HepG2 cells): above 5 μM

insulin: porcine insulin used to treat transfected HepG2 cells
induced PEPCK p-SEAP activity compared with the untreated cells ([1]; HepG2, increasing concentrations of insulin, 15-18 hours): 50%
AFXζ-induced PEPCK IRS-SEAP reporter activity ([2]; HepG2, 200 nM insulin): to the basal level
PEPCK IRS-SEAP activity ([2]; HepG2 cells in which exogenous AFXζ had not been introduced): repressed
